Legend:
[1] = molecular target: T1, Tyrosine-protein kinase receptor TYRO3 (Homo sapiens) (UniProt Q06418); test: Inhibition of human TYRO3/SKY using poly[Glu:Tyr] (4:1) as substrate at 1 uM in presence of 32P-ATP by Hotspot assay relative to control; values are per cent of control
T1 sequence (whole entry): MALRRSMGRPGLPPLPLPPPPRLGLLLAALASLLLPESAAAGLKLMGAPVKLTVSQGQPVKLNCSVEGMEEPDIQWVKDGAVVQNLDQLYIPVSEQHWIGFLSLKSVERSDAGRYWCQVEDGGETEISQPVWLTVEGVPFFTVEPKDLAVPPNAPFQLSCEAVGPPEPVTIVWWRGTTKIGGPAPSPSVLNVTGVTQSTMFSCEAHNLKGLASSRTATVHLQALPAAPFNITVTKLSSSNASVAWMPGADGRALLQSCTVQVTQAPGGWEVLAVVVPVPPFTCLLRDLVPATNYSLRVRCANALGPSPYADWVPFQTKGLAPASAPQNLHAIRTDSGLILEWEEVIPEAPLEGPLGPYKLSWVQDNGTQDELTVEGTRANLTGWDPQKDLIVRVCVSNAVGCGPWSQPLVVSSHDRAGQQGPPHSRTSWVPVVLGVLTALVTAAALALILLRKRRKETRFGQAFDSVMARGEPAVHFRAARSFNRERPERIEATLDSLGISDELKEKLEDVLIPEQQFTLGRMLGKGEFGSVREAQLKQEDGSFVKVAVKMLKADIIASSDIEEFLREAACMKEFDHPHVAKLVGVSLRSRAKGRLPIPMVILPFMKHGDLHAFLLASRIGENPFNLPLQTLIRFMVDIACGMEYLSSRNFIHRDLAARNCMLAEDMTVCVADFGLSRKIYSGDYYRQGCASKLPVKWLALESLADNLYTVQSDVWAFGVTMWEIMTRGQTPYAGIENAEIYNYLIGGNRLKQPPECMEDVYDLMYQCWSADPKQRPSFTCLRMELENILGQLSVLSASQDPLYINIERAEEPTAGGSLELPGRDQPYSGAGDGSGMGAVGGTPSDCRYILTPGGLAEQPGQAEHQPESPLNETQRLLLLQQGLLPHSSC

[2] = molecular target: T2, Ephrin type-B receptor 2 (Homo sapiens) (UniProt P29323); test: Inhibition of human EPHB2 using poly[Glu:Tyr] (4:1) as substrate at 1 uM in presence of 32P-ATP by Hotspot assay relative to control; values are per cent of control
T2 sequence (whole entry): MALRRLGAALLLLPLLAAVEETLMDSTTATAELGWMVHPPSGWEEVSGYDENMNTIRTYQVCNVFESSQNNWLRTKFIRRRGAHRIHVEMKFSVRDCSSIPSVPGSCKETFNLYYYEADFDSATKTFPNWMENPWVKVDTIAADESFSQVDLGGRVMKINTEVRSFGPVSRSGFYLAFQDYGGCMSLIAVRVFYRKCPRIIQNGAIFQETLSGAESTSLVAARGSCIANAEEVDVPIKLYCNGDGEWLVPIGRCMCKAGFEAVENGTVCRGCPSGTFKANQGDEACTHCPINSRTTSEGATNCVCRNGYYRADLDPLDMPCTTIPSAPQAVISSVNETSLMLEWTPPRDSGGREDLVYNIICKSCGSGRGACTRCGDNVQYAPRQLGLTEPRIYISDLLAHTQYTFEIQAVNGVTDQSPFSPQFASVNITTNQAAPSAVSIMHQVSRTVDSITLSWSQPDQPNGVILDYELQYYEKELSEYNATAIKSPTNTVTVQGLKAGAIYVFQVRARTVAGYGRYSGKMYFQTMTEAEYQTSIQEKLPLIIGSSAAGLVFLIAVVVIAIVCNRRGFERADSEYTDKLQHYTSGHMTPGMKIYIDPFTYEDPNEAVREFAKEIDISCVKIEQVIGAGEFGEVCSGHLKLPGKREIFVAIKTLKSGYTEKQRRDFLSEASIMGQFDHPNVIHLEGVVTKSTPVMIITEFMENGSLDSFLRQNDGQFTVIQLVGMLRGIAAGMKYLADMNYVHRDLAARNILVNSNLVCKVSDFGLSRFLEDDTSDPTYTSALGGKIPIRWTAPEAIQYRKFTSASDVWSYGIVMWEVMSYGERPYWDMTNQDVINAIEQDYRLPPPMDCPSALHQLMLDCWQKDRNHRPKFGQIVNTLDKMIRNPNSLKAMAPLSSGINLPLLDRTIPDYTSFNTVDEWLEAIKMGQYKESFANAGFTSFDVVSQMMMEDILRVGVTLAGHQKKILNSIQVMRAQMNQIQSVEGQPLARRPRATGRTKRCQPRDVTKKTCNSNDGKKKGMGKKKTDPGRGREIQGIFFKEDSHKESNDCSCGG

SMILES	residual activity [1]	residual activity [2]
CNC(=O)c1ccc2c(c1)ncn2-c1ccc(CC(=O)OC(C)(C)C)cc1	99.3%	95%
Cc1cc(-c2cnc(N)c3c(-c4ccc5scnc5c4)csc23)n(C)n1	100%	31%
CC(C)S(=O)(=O)c1ccc2nccc(Nc3ccc4scnc4c3)c2c1	84.6%	78.7%

— ChEMBL document CHEMBL5649166, “RIP3 induces apoptosis independent of pronecrotic kinase activity” (Mol Cell, 2014)
